Measurements reported in patent publication US10105339B2, “Ingenol derivatives in the reactivation of latent HIV” (priority 2012, dated 2018).

Legend:
[1] = tested on: HIV-1 latent virus in PBMC cells of patient; test: Activation of latent HIV in PBMC from patient under anti-retroviral treatment (semi-nested real time PCR of intracellular vRNA); assay type: cell-based; settings: 72 hours
Method: It was tested, in this experiment, the ability of ingenol derivative, of formula I, wherein Z=Z2, mentioned as B, of activating latent cells from patients who were already under anti-retroviral treatment for more than 1 year with undetectable viral load. A patient (identified as MLV) was selected, which had already been under treatment with zidovudine+lamivudine (AZT+3TC) and efavirenz for over 14 months, with undetectable viral load and CD4>500 cells/mm^3. 20 mL of blood was collected from the patient in a EDTA (ethylene diamine tetra acetic acid) tube and PBMC cells were isolated, which were placed in RPMI culture medium with 10% fetal bovine serum and 50 IU/mL of IL2 (interleukin 2), and grown in 2 bottles with 5 mL of identical cells (106/mL) with different selective compositions. 10 μM efavirenz (antiviral) was added to the control bottle to block viral replication that would eventually arise from cultured cells. In another test bottle both efavirenz (10 μM) and the B derivative of the invention (1 μM) were included. […]

[2] = tested on: CD4 HIV-1 receptor; test: Downregulation of CD4 receptor on human lymphocytes and monocytes/macrophages (flow cytometry); assay type: cell-based; settings: summary statement for lymphocytes and monocytes/macrophages (human and monkey cells tested)
Excerpt: It is verified in this test that ingenol derivatives of formula 1, when Z=Z2, at concentrations that activate HIV from latency in Jlat cells in example 3, downregulate the expression of CD4 cell receptor on the surface of HIV-human and SIV-pig-tail monkey CD4+T lymphocytes and macrophages. For this experiment PBMC cells from human and monkeys were isolated from peripheral blood with isolation through Ficoll-Hypaque density gradient (mixture of high density hydrophilic neutral polysaccharides that readily dissolves in aqueous solution. “Ficoll” is a trademark of GE Healthcare Bio-Sciences, USA). Thus, PBMC cells from human and monkeys, at concentration of 10^6 cells/mL, were cultured in RPMI medium with 10% fetal bovine serum for 24 hours and adhered cells (monocytes differentiating into macrophages) were separated from the cell supernatant which contained total lymphocytes. Those two distinct populations of cells were exposed to different concentrations of A, B and C derivatives of the invention, and left in culture for 72 hours. After exposure, the cells were stained with specific lymphocyte monoclonals (anti-CD3) and monocytes/macrophages (anti-CD14) simultaneously with an anti-CD4. Thus, the cells were centrifuged at 1000 G for 3 minutes and washed with the same PBS volume (without Ca^2+ and Mg^2+, Cat. No. 9240, Irvine Scientific, USA) containing 2% fetal bovine serum. This wash was repeated 3 times and the cells were suspended in 1×PBS containing a 1/1000 dilution of relevant antibodies and left to incubate for 30 min at 4° C. until being read in flow cytometry. After incubation, 30,000 cells were read in a BD-Excalibur flow cytometer (from Beckton Dickinson and co., USA) and the populations were separated and the CD4 receptor density was estimated at different concentrations of the B derivative, assuming cell density without B derivative as 100%. […]

Compound | intracellular HIV-1 vRNA ([1]; 10 μM efavirenz alone (control bottle), FIG. 7) | downregulation of the main HIV receptor (CD4) on the surface of infection targeted cells [2] | intracellular HIV-1 vRNA ([1]; 1 μM B derivative plus 10 μm efavirenz, FIG. 8)
O=C1Nc2ccc(Cl)cc2[C@@](C#CC2CC2)(C(F)(F)F)O1 [efavirenz, reference compound] | did not produce intracellular vRNA |  | 
CC1=CC23C(=O)C(C=C(CO)C(O)C2(O)C1OC(=O)/C=C/c1ccccc1)C1C(CC3C)C1(C)C (centres unmarked) [A, Ingenol 3-cinnamate] |  | able to downregulate | 
CCCCCC(=O)OC1C(C)=CC23C(=O)C(C=C(CO)C(O)C12O)C1C(CC3C)C1(C)C (centres unmarked) [B, Ingenol 3-caproate] |  | able to downregulate | emergence of intracellular HIV-1 vRNA
CCCCCCCCCCCC(=O)OC1C(C)=CC23C(=O)C(C=C(CO)C(O)C12O)C1C(CC3C)C1(C)C (centres unmarked) [C, ingenol 3-dodecanoate] |  | able to downregulate | 
